Values after ≈ are worked out from the molar mass of the structure shown.

The data set in a line: Toxicity in Artemia salina. The format is organism-based. As to conditions: in vivo, read-out: LD50 (the source's name).

`CC1(C)CCC[C@]2(C)[C@H]3CC[C@@]4(C)[C@@H](CC=C(C=O)[C@@H]4C=O)[C@]3(C)CC[C@@H]12` [12-DEACETOXYSCALARADIAL]: the LC50 is 0.77 µg/mL (≈ 2.08 µM).
For the molecule `CC(=O)O[C@H]1C[C@@H]2[C@@]3(C)CCCC(C)(C)[C@@H]3CC[C@@]2(C)[C@@H]2CC=C(C=O)[C@H](C=O)[C@@]12C` [SCALARADIAL], the LC50 came out at 0.18 µg/mL (≈ 0.42 µM).

Values taken from ChEMBL document CHEMBL1149039, “A new scalarane sesterterpenoid from the marine sponge Cacospongia mollior” (J Nat Prod, 1994).
